How the values were obtained:
Type in all cases: in vivo, human
sweetness = assay: Orange juice; partial least squares regression of volatiles against sweetness independent of total sugar (Table 9)
Description: Volatile content of orange juice was assessed and analyzed similar to as described above for tomato, strawberry, and blueberry, described above. The process for obtaining volatile samples from orange juice was slightly different than for tomatoes, strawberries and blueberries. […] Briefly, instead of collecting volatiles at room temperature from a fruit mash in headspace of a closed area, the volatiles were elicited by heating the juice to collect volatiles.

flavor intensity = assay: Tomato taste panel; association of compounds with tomato flavor intensity; conditions: for association with flavor intensity: univariate models
Description: (§1) Fully ripe fruit were harvested, and used for taste panels. A random subset of fruit was used for biochemical analysis. Three biological replicates, each consisting of 2-20 fruit (depending on fruit size), were assayed for each variety. […] Panelists were between the ages of 18 and 78 with a median age of 22. […] An average of 85 (range of 66-95) of these panelists evaluated between 4-6 varieties in a session. All panelists went through a training session to familiarize them with the scaling and procedures. Tomatoes were sliced into wedges (or in halves for grape/cherry types) and each panelist was given two pieces for evaluation. Panelists took a bite of each sample, chewed and swallowed it, and rated overall liking and liking for texture. They then rated the perceived intensities of sweetness, sourness, saltiness, umami sensation, bitterness and overall tomato flavor. They were free to take as many bites as necessary to complete the assessments. They were instructed to take a bite of an unsalted cracker and a sip of water between samples. Samples were presented to the panelists in a randomized order. Hedonic ratings used the hedonic gLMS. This scale assesses the liking for tomatoes in the context of all pleasure/displeasure experiences: 0=neutral, −100=strongest disliking of any kind experienced, and +100=strongest liking of any kind experienced. Sensory intensity ratings used the gLMS (7,8,19). This scale assesses taste and flavor sensations in the context of all sensory experience (7): 0=no sensation, 100=strongest sensation of any kind experienced. Both scales were devised to provide valid comparisons across subjects.
(§2) The 68 chemical compounds measured in this experiment were initially divided into six groups based upon biochemical properties: sugars, branched chain amino acids, lipids, carotenoids, phenolics, and acids. A small number of compounds for which biosynthetic pathways are not established were assigned to one of the six classes based upon their correlations with other classified compounds. All pairwise correlations among the set of 68 compounds were calculated. Correlation coefficients were sorted using Modulated Modularity Clustering (MMC) (9) as a visual aid for identifying compounds that are closely related in this sample. Biochemical groups were examined for compounds within the group that were highly correlated and compounds that were upstream in the relevant metabolic pathways were preferentially selected.
(§3) All analyses were performed in SAS v 9.2.
Due to the large number of chemicals potentially influencing liking, a multivariate analysis of the data was performed. The attributes were initially partitioned into six groups based upon chemical properties and biosynthetic pathways: sugars, branched chain amino acids, fatty acids, carotenoids, phenolics, and acids. […] Groups of structurally related chemicals with known metabolic links were examined for compounds within each module that were highly colinear and compounds that were upstream in relevant metabolic pathways were preferentially selected.

[1] = system: perceived sweetness intensity; assay: Strawberry consumer panel; revised partial least squares regression against sweetness intensity (Table 6)
Description: All consumer panels were approved by the University of Florida Institutional Review Board. […] Ages of panelist ranged from 18 to 71, with a median age of 24. Panelists self-classified themselves as 98 White or Caucasian, 11 Black or African-American, 1 Native American, Alaska Native or Aleutian, 41 Asian/Pacific Islander, and 15 Other. […] Fresh, fully-ripe strawberry fruit was removed from overnight 4° C. dark storage and allowed to warm to room temperature prior to sensory analysis. Each panelist was given one to two whole strawberries for evaluation, depending on cultivar availability. Panelist took a bite of each sample, chewed, and swallowed it. Ratings for overall liking and liking for texture were scaled on hedonic general labeled magnitude scale (gLMS) in the context of all pleasure/displeasure experiences. […] Scales were employed to mediate valid comparisons across subjects and sessions.
For the second analysis, partial least squares regression analysis was used to identify more correlations to sweetness independent of sugars.

perceived sweetness = assay: Tomato taste panel; initial multiple regression of volatiles against perceived sweetness (Table 3); conditions: for association with sweetness after accounting for fructose / association with sweetness: tomato; for association with sweetness: univariate models
Description: as §1, §2, §3
In conducting the multiple regression analysis on the tomato data set, the independent variables were the sugar content (glucose+fructose), and the flavor (indicated by the retronasal perception of volatiles), while the dependent variable was the perceived sweetness.

[2] = strawberry volatile concentration regressed against perceived sweetness intensity independent of fructose, partial least squares regression
[3] = strawberry volatile concentration regressed against perceived sweetness intensity independent of glucose, partial least squares regression
[4] = strawberry volatile concentration regressed against perceived sweetness intensity independent of sucrose, partial least squares regression

C=C(C)[C@@H]1CC=C(C)[C@@H](O)C1 (relative stereo) [carveol, trans]
Total Sugar t Ratio (sweetness): 2.542

C=CC(=O)CCCCC [1-octen-3-one]
association with flavor intensity after accounting for fructose (flavor intensity): significant after accounting for fructose
association with flavor intensity (flavor intensity): associated with flavor intensity

CCCCCC=CC=O [2-Octenal]
t Ratio (Fructose) [1, 2]: −0.171
t Ratio (Glucose) [1, 3]: 0.292
t Ratio (Sucrose) [1, 4]: 2.052

CCC(C)C=O (centres unmarked) [2-methylbuteraldehyde, 2-methylbutanal]
association with flavor intensity after accounting for fructose (flavor intensity): significant after accounting for fructose
association with flavor intensity (flavor intensity): associated with flavor intensity
association with sweetness after accounting for fructose (perceived sweetness): significant after accounting for fructose
association with sweetness (perceived sweetness): showed evidence for association with sweetness

CC(C)CCO [3-methyl-1-butanol]
association with flavor intensity after accounting for fructose (flavor intensity): significant after accounting for fructose
association with flavor intensity (flavor intensity): associated with flavor intensity
association with sweetness after accounting for fructose (perceived sweetness): significant after accounting for fructose
association with sweetness (perceived sweetness): showed evidence for association with sweetness

CC1C=CC2C(C1)C2(C)C (centres unmarked) [4-carene]
association with sweetness (perceived sweetness): showed evidence for association with sweetness

C=C[C@]1(C)CC[C@H](C(C)(C)O)O1 [(Z)-Linalool oxide]
t Ratio (Fructose) [1, 2]: 1.868
t Ratio (Glucose) [1, 3]: 1.561
t Ratio (Sucrose) [1, 4]: 1.954

C/C=C(C)/C=C/C=C(C)C [E,E-alloocimene]
Total Sugar t Ratio (sweetness): 3.337

C=C(C)[C@H]1C=C[C@](C)(O)CC1 [E-p-mentha-2,8-dien-1-ol]
Total Sugar t Ratio (sweetness): 1.258

C=C(C)[C@@H]1CCC2=CCC[C@H](C)[C@@]2(C)C1 [Eremophilene]
Total Sugar t Ratio (sweetness): 1.738

C[Si](C)(C)CCOC(=O)CC(=O)OCC[Si](C)(C)C [Malonic acid, bis(2-trimethylsilylethyl ester]
Total Sugar t Ratio (sweetness): 3.148

CC1(C)[C@H]2CC=C(C=O)[C@@H]1C2 [Myrtenal]
t Ratio (Fructose) [1, 2]: 2.588
t Ratio (Glucose) [1, 3]: 2.455
t Ratio (Sucrose) [1, 4]: −1.323

CCCCCCCCOC(=O)C(C)CC (centres unmarked) [Octyl 2-methyl butyrate]
t Ratio (Fructose) ([1]; in vivo): 0.015
t Ratio (Glucose) ([1]; in vivo): −0.099
t Ratio (Sucrose) ([1]; in vivo): 0.357

C=C(C)C1CC=C(COC(C)=O)CC1 (centres unmarked) [Perillyl acetate]
t Ratio (Fructose) [1, 2]: 0.231
t Ratio (Glucose) [1, 3]: 0.193
t Ratio (Sucrose) [1, 4]: 0.927

C[Si](C)(O)O [Silanediol, dimethyl-]
Total Sugar t Ratio (sweetness): 1.781

c1ccc2scnc2c1 [benzothiazole]
association with flavor intensity (flavor intensity): associated with flavor intensity

CCCCOC(C)=O [butyl acetate]
association with flavor intensity (flavor intensity): associated with flavor intensity
association with sweetness (perceived sweetness): showed evidence for association with sweetness

CC/C=C\CCO [cis-3-hexen-1-ol]
association with flavor intensity after accounting for fructose (flavor intensity): significant after accounting for fructose
association with flavor intensity (flavor intensity): associated with flavor intensity
association with sweetness (perceived sweetness): showed evidence for association with sweetness

CCCCC/C=C\CCC=O [cis-4-decenal]
t (perceived sweetness; tomato volatiles, multiple regression, contribution to sweetness independent of the measures of sugar): 0.582

O=C(O)CC(O)(CC(=O)O)C(=O)O [citric acid]
association with flavor intensity after accounting for fructose (flavor intensity): significant after accounting for fructose
association with flavor intensity (flavor intensity): associated with flavor intensity

CC1=CC[C@H]2[C@H]3[C@@H]1[C@]2(C)CC[C@H]3C(C)C [copaene]
Total Sugar t Ratio (sweetness): 2.06

C=CCc1ccc(O)c(OC)c1 [eugenol]
association with sweetness (perceived sweetness): showed evidence for association with sweetness

O=C(CO)[C@@H](O)[C@H](O)[C@H](O)CO [fructose]
association with flavor intensity (flavor intensity): associated with flavor intensity
association with sweetness (perceived sweetness): showed evidence for association with sweetness

CC(C)=CCC/C(C)=C/C=O [geranial]
association with flavor intensity (flavor intensity): associated with flavor intensity
association with sweetness after accounting for fructose (perceived sweetness): significant after accounting for fructose
association with sweetness (perceived sweetness): showed evidence for association with sweetness

COc1ccccc1O [guaiacol]
association with sweetness (perceived sweetness): showed evidence for association with sweetness

CCCCCCC=O [heptaldehyde]
association with sweetness (perceived sweetness): showed evidence for association with sweetness

CSCCC=O [methional]
association with flavor intensity (flavor intensity): associated with flavor intensity
association with sweetness (perceived sweetness): showed evidence for association with sweetness

O=CCc1ccccc1 [phenylacetaldehyde]
association with sweetness (perceived sweetness): showed evidence for association with sweetness

CCC(C)OC(C)=O (centres unmarked) [sec-butyl acetate]
association with flavor intensity after accounting for fructose (flavor intensity): significant after accounting for fructose

CCCCC/C=C/C=C/C=O [trans,trans-2,4-decadienal]
association with flavor intensity after accounting for fructose (flavor intensity): significant after accounting for fructose
association with flavor intensity (flavor intensity): associated with flavor intensity

C=C(C)[C@@H]1CCC2=CCC[C@@H](C)[C@]2(C)C1 [valencene]
Total Sugar t Ratio (sweetness): 2.206

CC(=O)/C=C/C1C(C)=CCCC1(C)C (stereo not drawn) [α-ionone]
Total Sugar t Ratio (sweetness): 2.042

CC1=CCCC2(C)CCC3C(C)(C)CC132 (stereo not drawn) [α-panasinsen]
Total Sugar t Ratio (sweetness): 2.909

C=C(C)[C@@H]1CC[C@@]2(C)CCC=C(C)[C@@H]2C1 [α-selinene]
Total Sugar t Ratio (sweetness): 2.428

CC1=CC[C@H]2C(C)=CC[C@@H](C(C)C)[C@@H]2C1 [β-cadinene]
Total Sugar t Ratio (sweetness): 2.69

CCCCCCC1CCC(=O)O1 (centres unmarked) [γ-Decalactone]
t Ratio (Fructose) [1, 2]: 1.246
t Ratio (Glucose) [1, 3]: 0.88
t Ratio (Sucrose) [1, 4]: 1.650

C=C1CCCC2(C)CCC(=C(C)C)CC12 (centres unmarked) [γ-Selinene]
Total Sugar t Ratio (sweetness): 4.272

C=C(C)C1=C[C@]2(C)C(=CC1)CCC[C@H]2C [γ-vetivenene]
Total Sugar t Ratio (sweetness): 2.469

Methyl thiolacetate
t Ratio (Fructose) [1, 2]: 0.476
t Ratio (Glucose) [1, 3]: 0.416
t Ratio (Sucrose) [1, 4]: 1.037

b-caryophyllene/aromadendrene
Total Sugar t Ratio (sweetness): 1.565

neryl propanoate/Geranyl isobutanoate
Total Sugar t Ratio (sweetness): 2.298

— patent US11744273B2, “Sweetness enhancing volatile compositions and methods of increasing perceived sweetness of a comestible” (University of Florida Research Foundation, Inc., priority 2016, dated 2023)
